Where two headings read alike, the source gives them in different places.
Experiments:
c-Ret WT = c-Ret WT (Homo sapiens (Human), UniProt P07949); test: HTRF kinase assay, c-Ret WT; assay type: biochemical; conditions: enzymatic determination
Experimental: (§1) Most of the kinases tested in this study were cloned, expressed and purified in the facilities of the inventors. They were expressed either as N-terminus hexahistidine-, hexahistidine-asparagine- or GST-tagged enzymes in a baculovirus or in a Colibacille expression system. Remaining enzymes (JAKs) were purchased from Millipore or Proqinase. For each enzyme, steady state kinetic parameters were determined and validated with known inhibitors.
(§2) The analysis of the effect of compounds on kinase activity was assessed with the HTRF® KinEASE assay (Cisbio International), an immuno-assay based on the quantification of the level of phosphorylation of a biotinylated peptide substrate using anti-phospho-specific antibody labeled with Europium (Eu^3+) cryptate. This assay comprises two steps: —an enzymatic step, during which the peptide substrate, the kinase, ATP, Mg^2+ and/or Mn^2+ are incubated with varying concentration of drug (from 0 to 10 μM); —a detection step, at the end of the reaction (stopped by addition of EDTA which chelates Mg^2+), the antibody anti-phospho peptide-Eu^3+ (emission 620 nm) and streptavidin XL-665 (emission 665 nm) are added to the reaction mix. […] Results are expressed in delta fluorescence (DF) unit defined as follow DF %=[(ratio−ratio blank)/(ratio blank)]*100, where ratio=(665 nm/620 nm)*10^4. […]

[1] = tested on: Salmonella typhimurium strain TA100
Experimental: Mutagenic activity of test compounds and their metabolites (produced by rat liver S9 fraction) was evaluated in the Salmonella typhimurium strains TA100 and TA98 according to the Ames assay (Toxicology in vitro, (2001), 15: 105-114). […] The results are expressed as a mutagenicity ratio in comparison to solvent controls.
The results are expressed as a ratio of the number of colonies over the number of colonies in the negative control (DMSO).

[2] = tested on: rat neonatal cardiac myocytes; test: Intracellular ROS in rat cardiomyocytes (CM-H2DCFDA); assay type: cell-based; conditions: 10 μM, 8 hours
Experimental: 2×10^3 human cardiomyocytes (Promocell C-12810) or 4×10^4 rat neonatal cardiac myocytes (R-CM-561 Lonza) were seeded per well of a 96-well plate (black wall for fluorimetry usage (655090 Greiner Bio one)) 24 hours before drug treatment. Treatment was initiated by addition of a drug solution for a 10 μM final concentration. Doxorubicin was used at 5 μM as positive control for the induction of ROS. After 8 hours treatment with drugs, cells were loaded with 10 μM of CM-H2DCFDA (C6827 Invitrogen) for 1 hour, followed by 2 washes in PBS. CM-H2DCFDA is a membrane permeable reagent that can be enzymatically converted to dichlorodihydrofluorescein (DCF) in the presence of ROS. Fluorescent DCF was detected using a fluorescence spectrophotometer (BMG Labtech) with excitation of 485 nm and emission of 560 nm. The results were expressed as a relative percent of DCF-fluorescence in control cells.
Monitoring drug-induced increase in the production of reactive oxygen species (ROS) in cardiomyocyte may be important to predict the cardiotoxic side effects of a drug (Table 11). The production of ROS in human and rat cardiomyocytes was studied following 8 hours drug treatment at concentration of 10 μM. The results were expressed as a percent relative to the production of ROS induced by the cardiotoxic chemotherapeutic agent doxorubicin (100%).

Jak2 = Jak2 (Homo sapiens (Human), UniProt O60674); test: HTRF kinase assay, Jak2; assay type: biochemical; conditions: enzymatic determination
Experimental: as §1, §2

BCR-ABL = BCR-ABL (Homo sapiens, UniProt P00519); test: Cell-based proliferation assay on BaF3 model, BCR-ABL
Experimental: Cell-based proliferation and viability assay CellTiter-Bleue cell-based survival/proliferation assay (Promega G8080) was performed on BaF3 models. […] Cells were grown for 48-72 h at 37° C. and then incubated with 10 μl/well of Promega CellTiter-Bleue reagent for 4 h at 37° C. The amount of formazan dye formed was quantified by its absorbance at 450 nm using a scanning multiwell spectrophotometer (POLARstar Omega, BMG labtech, France). A blank well without cells was used as a background control for the spectrophotometer and all assays were performed in duplicates and the experiments were repeated at least twice.

[3] = WST-1 cell survival/proliferation assay on rat cardiomyocytes; assay type: cell-based; conditions: Rat Cardiac Myocyte
Experimental: WST-1 cell survival/proliferation assay (Roche Diagnostic ref No 1644807) was performed on both primary human adult cardiomyocytes and rat neonatal cardiac myocytes.
Human cardiomyocytes were isolated from normal human ventricle tissue of the adult heart and were able to proliferate for a number of passage. Neonatal ventricular Clonetics® Rat Cardiac Myocytes (P1-3) retained their contractile property and were electrophysiologically active in culture. 1.10^4 primary rat cells or 2-2.5 10^4 adult human cells were plated per well of a 96 wells plates. The cells were allowed to adhere to the plates for 5 days before drug treatment. Treatment was initiated by addition of a 2× drug solution of ½ serial dilutions ranging from 0 to 10 μM. Cells were grown for 48 h at 37° C. and then incubated with 10 μl/well of WST-1 reagent for 4 h at 37° C. The amount of formazan dye formed was quantified by its absorbance at 450 nm using a scanning multiwell spectrophotometer (MultiSkan MS, Thermo-LabSystems, France). A blank well without cells was used as a background control for the spectrophotometer and all assays were performed in triplicate.

HepG2 tumor cell line = test: Mitochondrial ToxGlo assay (ATP production and cytotoxicity); assay type: cell-based; conditions: HepG2, 20 μM, 2 hours
Experimental: Drug-induced mitochondrial toxicity was evaluated by monitoring oxygen consumption using a Clark oxygen electrode on mitochondria isolated from heart of healthy mouse (Mitologics S.A.S, France). Briefly, isolated mitochondria are placed at 37° C. in a sealed chamber that is exposed to the surface of a Clark oxygen electrode. The presence of oxygen caused the electrode to deliver a current to the oxygen monitor, which amplified the current and converted it to a voltage output that was directly proportional to the concentration of oxygen in the chamber. Drug-induced mitochondrial toxicity was also evaluated by monitoring mitochondrial ATP production using a cell-based assay (Mitochondrial ToxGlo™ assay, Promega Corporation (cat#G8000)). […] The test was performed on HepG2 tumor cell line grown in galactose medium in order to force the cancer cells to produce ATP via oxidative phosphorylation (crabtree effect). Cells were treated for 2 hours with 20 μM drug before analysis of ATP detection (Luminescent signal) and cytotoxicity (Fluorescent signal) as described by manufacturers using PHERAstar and POLARstar OMEGA microplate readers respectively (BMG Labteck Sari).

Chain of Jak2 (O60674 whole entry): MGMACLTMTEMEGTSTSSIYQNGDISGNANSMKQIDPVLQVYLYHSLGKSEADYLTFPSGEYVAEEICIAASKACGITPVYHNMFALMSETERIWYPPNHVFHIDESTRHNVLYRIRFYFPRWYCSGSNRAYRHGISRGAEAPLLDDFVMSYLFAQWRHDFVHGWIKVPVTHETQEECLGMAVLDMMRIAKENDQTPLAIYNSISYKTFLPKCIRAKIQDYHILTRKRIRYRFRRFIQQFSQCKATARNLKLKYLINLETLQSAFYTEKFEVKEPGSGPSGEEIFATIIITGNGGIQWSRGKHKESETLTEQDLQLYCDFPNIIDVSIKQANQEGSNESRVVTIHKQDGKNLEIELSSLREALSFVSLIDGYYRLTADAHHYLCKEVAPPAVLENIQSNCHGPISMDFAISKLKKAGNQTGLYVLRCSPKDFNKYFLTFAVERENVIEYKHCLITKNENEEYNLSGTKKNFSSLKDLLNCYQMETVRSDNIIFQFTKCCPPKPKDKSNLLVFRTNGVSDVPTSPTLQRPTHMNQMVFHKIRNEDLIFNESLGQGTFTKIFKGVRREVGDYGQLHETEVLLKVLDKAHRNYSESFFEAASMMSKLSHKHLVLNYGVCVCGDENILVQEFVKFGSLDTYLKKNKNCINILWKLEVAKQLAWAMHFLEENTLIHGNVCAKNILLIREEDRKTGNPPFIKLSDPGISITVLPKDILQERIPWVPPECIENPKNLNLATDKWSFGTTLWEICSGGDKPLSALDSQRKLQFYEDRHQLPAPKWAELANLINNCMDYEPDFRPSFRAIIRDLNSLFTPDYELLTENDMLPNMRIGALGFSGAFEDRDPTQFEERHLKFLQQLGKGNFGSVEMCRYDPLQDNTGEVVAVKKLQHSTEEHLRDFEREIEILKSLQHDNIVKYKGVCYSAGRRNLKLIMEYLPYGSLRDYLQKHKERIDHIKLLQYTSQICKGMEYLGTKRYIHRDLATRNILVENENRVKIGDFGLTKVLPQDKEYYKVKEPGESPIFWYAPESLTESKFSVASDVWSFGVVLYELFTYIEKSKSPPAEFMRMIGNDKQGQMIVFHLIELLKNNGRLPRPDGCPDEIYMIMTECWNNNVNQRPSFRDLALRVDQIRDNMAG
Chain of c-Ret WT (P07949 29-1114): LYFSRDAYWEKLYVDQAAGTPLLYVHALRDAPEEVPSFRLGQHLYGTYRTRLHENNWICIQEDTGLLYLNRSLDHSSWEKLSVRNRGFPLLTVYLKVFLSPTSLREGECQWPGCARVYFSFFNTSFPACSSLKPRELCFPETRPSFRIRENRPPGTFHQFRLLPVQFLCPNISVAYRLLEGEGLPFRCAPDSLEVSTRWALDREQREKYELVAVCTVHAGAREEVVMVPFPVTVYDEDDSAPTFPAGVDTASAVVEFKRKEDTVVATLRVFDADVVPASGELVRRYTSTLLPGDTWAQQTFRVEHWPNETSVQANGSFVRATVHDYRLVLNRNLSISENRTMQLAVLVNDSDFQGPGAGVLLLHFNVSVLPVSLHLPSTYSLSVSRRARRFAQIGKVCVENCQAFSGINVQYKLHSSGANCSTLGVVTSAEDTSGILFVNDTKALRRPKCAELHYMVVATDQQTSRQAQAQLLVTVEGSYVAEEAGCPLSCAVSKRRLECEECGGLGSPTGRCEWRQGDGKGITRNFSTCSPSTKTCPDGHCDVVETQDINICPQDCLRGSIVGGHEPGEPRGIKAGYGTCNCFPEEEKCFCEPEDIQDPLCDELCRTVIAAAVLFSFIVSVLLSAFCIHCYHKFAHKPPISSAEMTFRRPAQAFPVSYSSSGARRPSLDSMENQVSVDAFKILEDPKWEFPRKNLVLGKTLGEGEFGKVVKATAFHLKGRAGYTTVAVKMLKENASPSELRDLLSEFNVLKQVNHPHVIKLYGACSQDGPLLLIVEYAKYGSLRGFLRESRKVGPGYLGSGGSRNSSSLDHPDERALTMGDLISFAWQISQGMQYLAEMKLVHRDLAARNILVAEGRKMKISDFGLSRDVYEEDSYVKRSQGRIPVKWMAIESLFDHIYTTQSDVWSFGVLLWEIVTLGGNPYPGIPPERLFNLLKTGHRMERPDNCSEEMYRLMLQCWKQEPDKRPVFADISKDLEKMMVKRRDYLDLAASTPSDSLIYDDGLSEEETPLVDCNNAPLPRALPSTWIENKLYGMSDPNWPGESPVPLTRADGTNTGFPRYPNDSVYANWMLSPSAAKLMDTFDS
Chain of BCR-ABL (P00519 whole entry, looked up, stated change not applied): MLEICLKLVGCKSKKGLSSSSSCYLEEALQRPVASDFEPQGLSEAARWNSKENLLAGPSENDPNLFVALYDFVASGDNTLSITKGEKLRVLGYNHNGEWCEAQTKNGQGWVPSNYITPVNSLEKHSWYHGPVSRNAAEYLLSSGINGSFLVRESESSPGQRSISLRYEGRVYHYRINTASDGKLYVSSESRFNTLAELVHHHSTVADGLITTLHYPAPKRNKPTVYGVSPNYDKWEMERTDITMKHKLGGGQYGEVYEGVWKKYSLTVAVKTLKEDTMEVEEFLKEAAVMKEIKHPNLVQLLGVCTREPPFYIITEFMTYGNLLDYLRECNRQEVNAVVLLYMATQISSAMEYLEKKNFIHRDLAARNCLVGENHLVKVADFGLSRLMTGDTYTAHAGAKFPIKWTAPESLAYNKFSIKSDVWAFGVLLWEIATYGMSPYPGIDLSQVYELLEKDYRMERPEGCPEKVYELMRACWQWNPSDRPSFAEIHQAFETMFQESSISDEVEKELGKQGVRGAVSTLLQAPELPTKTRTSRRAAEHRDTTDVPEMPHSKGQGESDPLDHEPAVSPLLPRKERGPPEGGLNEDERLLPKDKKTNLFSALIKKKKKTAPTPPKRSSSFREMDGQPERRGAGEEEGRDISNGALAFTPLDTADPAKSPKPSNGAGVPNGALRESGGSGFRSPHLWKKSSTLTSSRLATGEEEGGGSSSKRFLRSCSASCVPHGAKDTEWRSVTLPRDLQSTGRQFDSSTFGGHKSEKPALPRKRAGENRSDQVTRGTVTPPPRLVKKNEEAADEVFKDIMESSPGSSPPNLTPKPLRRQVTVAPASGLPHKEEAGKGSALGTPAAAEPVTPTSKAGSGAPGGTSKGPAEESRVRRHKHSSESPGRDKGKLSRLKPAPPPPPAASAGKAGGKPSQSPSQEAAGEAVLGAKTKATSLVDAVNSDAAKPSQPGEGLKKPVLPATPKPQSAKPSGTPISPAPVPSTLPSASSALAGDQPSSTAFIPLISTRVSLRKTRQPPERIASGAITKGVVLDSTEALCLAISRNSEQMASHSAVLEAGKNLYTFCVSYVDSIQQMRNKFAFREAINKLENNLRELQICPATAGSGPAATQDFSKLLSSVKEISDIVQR

Cc1ccnc(Nc2cccc(-c3cnc(N4CCNC(=O)C45CC5)o3)c2)n1 [Compound 001, 4-{5-[3-(4-Methyl-pyrimidin-2-ylamino)-phenyl]-oxazol-2-yl}-4,7-diaza-spiro[2.5]octan-8-one]
IC50 (c-Ret WT): 10 µM | mutagenic activity [1]: did not show any mutagenic activity | ROS production, activity relative to doxorubicine (100%), Rat-CM [2]: 0% | IC50 (Jak2; read-out: Jak2 IC50): 0.9 µM | IC50 (Jak2; read-out: Kinase activity profile IC50 JAK 2): 0.92 µM | IC50 (BCR-ABL): 10 µM | IC50 at 48 h ([3]; neonatal ventricular rat cardiac myocytes (Clonetics, P1-3), 48 h, read-out: Drug-induced cytotoxicity IC50, Rat-CM): 10 µM | viability change vs untreated control at 48 h, 1 µM ([3]; rat neonatal cardiac myocytes, 1 μM): -2% | ATP production relative to DMSO (100%) Mito ToxGlo (HepG2 tumor cell line): 104% | Cytotoxicity relative to DMSO (0%) Mito ToxGlo (HepG2 tumor cell line): 11% | ATP production relative to DMSO (100%) Mito ToxGlo (HepG2 tumor cell line; listed as compound 001): 104% | Cytotoxicity relative to DMSO (0%) Mito ToxGlo (HepG2 tumor cell line; listed as compound 001): 11%

Source: patent publication US10053455B2, “Diazaspiroalkaneone-substituted oxazole derivatives as spleen tyrosine kinase inhibitors” (AB SCIENCE, priority 2014, dated 2018)
